Paper PMC11202169, “A Novel Fluorescence-Based Microplate Assay for High-Throughput Screening of hSULT1As Inhibitors” (Biosensors, 2024)
Where “and” joins values, the source holds several entries; their conditions need not be identical. Equal values may be shown once. Read-outs that look alike come from different tables or passages of the source.

Experiments:
Type in all cases: biochemical
hSULT1A3 = biological target: T1, hSULT1A3 (Homo sapiens, UniProt P0DMM9); assay: Fluorescence-based microplate inhibition assay, hSULT1A3-catalyzed HN-241 4-O-sulfation; details: for activity at 10 µM: read-out: Residue activity (%) hSULT1A3; for IC50: hSULT1A3-catalyzed HN-241 4-O-sulfation
T1 construct: 6-histidine tag (N); TEV site (N); made in house; host or cells: Escherichia coli BL21 (DE3), pET29a(+)
T1 sequence (P0DMM9 whole entry): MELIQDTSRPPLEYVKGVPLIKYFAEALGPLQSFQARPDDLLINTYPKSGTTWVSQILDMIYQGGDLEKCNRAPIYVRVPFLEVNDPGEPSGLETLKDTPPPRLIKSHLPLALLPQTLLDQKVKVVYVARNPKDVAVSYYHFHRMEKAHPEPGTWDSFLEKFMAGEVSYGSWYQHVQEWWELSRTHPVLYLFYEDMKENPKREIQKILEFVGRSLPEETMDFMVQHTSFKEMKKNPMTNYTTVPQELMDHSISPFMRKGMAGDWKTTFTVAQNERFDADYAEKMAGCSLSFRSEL

hSULT1A2 = biological target: T2, hSULT1A2 (Homo sapiens, UniProt P50226); assay: Fluorescence-based microplate inhibition assay, hSULT1A2-catalyzed HN-241 4-O-sulfation; details: for remaining activity at 10 µM: 0.25 h, read-out: Residue activity (%) hSULT1A2
T2 construct: 6-histidine tag (N); TEV site (N); made in house; host or cells: Escherichia coli BL21 (DE3), pET29a(+)
T2 sequence (P50226 whole entry): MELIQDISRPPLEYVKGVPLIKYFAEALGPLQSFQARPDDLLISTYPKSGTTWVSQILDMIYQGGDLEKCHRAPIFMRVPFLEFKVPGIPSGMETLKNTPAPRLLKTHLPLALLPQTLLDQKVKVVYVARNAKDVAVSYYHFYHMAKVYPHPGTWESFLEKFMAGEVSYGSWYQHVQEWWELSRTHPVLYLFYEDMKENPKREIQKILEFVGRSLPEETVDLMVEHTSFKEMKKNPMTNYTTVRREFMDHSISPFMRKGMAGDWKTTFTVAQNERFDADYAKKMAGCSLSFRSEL

hSULT1A1 = biological target: T3, hSULT1A1 (Homo sapiens, UniProt P50225); assay: Fluorescence-based microplate inhibition assay, hSULT1A1-catalyzed HN-241 4-O-sulfation; details: for activity at 1 µM: read-out: Residue activity (%) hSULT1A1; for IC50: hSULT1A1-catalyzed HN-241 4-O-sulfation;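 on all read-outs here: reaction started with 200 µM PAPS at 37 °C, fluorescence read continuously (Ex 350 nm, Em 450 nm), activity expressed relative to DMSO-only control without inhibitor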
T3 construct: 6-histidine tag (N); TEV site (N); made in house; host or cells: Escherichia coli BL21 (DE3), pET29a(+)
T3 sequence (P50225 whole entry): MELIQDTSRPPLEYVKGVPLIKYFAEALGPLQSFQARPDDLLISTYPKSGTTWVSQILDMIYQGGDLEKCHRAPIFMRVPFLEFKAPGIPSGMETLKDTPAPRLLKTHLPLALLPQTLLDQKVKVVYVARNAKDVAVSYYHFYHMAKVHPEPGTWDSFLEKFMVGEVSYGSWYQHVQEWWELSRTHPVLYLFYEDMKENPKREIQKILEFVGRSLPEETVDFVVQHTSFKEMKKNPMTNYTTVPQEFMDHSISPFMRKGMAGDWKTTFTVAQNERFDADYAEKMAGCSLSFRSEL

[1] = test compound 10 μM, HN-241 10 μM, 15 min
[2] = test compound 10 μM, HN-241 5 μM, 15 min
[3] = hSULT1A2-catalyzed HN-241 4-O-sulfation
[4] = test compound 1 μM, HN-241 1 μM, 15 min

## COc1c(O)cc2c(c1O)C(=O)c1c(cc(C)c(O)c1OC)C2=O [Aurantio-obtusin]
hSULT1A3; [1]
  activity at 10 µM: 45.2%
hSULT1A2; [2]
  remaining activity at 10 µM: 0%
hSULT1A2; [3]
  IC50: 492 ± 15.2 nM
hSULT1A1; [4]
  activity at 1 µM: 0.45%

## O=c1cc(-c2ccccc2)oc2cc(O)c(O)c(O)c12 [Baicalein]
hSULT1A3
  IC50: 6320 ± 195 nM
hSULT1A1
  IC50: 45.2 ± 3.91 nM

## COc1ccc(-c2cc(=O)c3c(O)cc(O)cc3o2)cc1-c1c(O)cc(O)c2c(=O)cc(-c3ccc(O)cc3)oc12 [Bilobetin]
hSULT1A3; [1]
  activity at 10 µM: 42.3%
hSULT1A2; [2]
  remaining activity at 10 µM: 0%
hSULT1A2; [3]
  IC50: 55.5 ± 1.3 nM
hSULT1A2; inhibition kinetic assay, hSULT1A2-catalyzed HN-241 4-O-sulfation
  Inhibition manner: mixed inhibition
hSULT1A1; [4]
  activity at 1 µM: 24%

## C[C@]12CC[C@H](O)C[C@H]1CC[C@@H]1[C@@H]2CC[C@]2(C)[C@@H](c3ccc(=O)oc3)CC[C@]12O [Bufalin]
hSULT1A3
  activity at 10 µM: 124%
hSULT1A2
  remaining activity at 10 µM: 106%
hSULT1A1
  activity at 1 µM: 103%

## COc1ccc(-c2coc3cc(O[C@@H]4O[C@H](CO)[C@@H](O)[C@H](O)[C@H]4O)ccc3c2=O)cc1O [Calycosin-7-O-β-D-glucoside]
hSULT1A3; [1]
  Residue activity (%) hSULT1A3: 54.16%
hSULT1A2; [2]
  Residue activity (%) hSULT1A2: 22.81%
hSULT1A1; [4]
  Residue activity (%) hSULT1A1: 2.77%

## COc1cc(O)cc(O)c1C(=O)/C=C/c1ccccc1 [Cardamonin]
hSULT1A3; [1]
  Residue activity (%) hSULT1A3: 120.65% and 88.76%
hSULT1A2; [2]
  Residue activity (%) hSULT1A2: 34.41% and 31.76%
hSULT1A1; [4]
  Residue activity (%) hSULT1A1: 63.24% and 71.38%

## C[C@H](CCC(=O)O)[C@H]1CC[C@H]2[C@@H]3[C@H](O)C[C@@H]4C[C@H](O)CC[C@]4(C)[C@H]3CC[C@]12C [Chenodeoxycholic acid]
hSULT1A3; [1]
  activity at 10 µM: 129%
hSULT1A2; [2]
  remaining activity at 10 µM: 98.2%
hSULT1A1; [4]
  activity at 1 µM: 96.5%

## COc1cc2c(c(OC)c1OC)C(=O)c1c(cc(C)c(O)c1OC)C2=O [Chrysoobtusin]
hSULT1A3
  IC50: 1520 ± 79.1 nM
hSULT1A3; [1]
  activity at 10 µM: 5.28%
hSULT1A2; [2]
  remaining activity at 10 µM: 0.09%
hSULT1A1; [4]
  activity at 1 µM: 1.84%

## Cc1cc(O)c2c(c1)C(=O)c1cccc(O)c1C2=O [Chrysophanic acid]
hSULT1A3; [1]
  activity at 10 µM: 99.3%
hSULT1A2; [2]
  remaining activity at 10 µM: 45.4%
hSULT1A1; [4]
  activity at 1 µM: 3.52%

## C[C@H]1C(=O)O[C@@H]2CCN3CC=C(COC(=O)[C@](C)(O)[C@]1(C)O)[C@H]23 [Crotaline]
hSULT1A3; [1]
  Residue activity (%) hSULT1A3: 122.18%
hSULT1A2; [2]
  Residue activity (%) hSULT1A2: 97.30%
hSULT1A1; [4]
  Residue activity (%) hSULT1A1: 128.03%

## COc1ccc(-c2cc(=O)c3c(O)cc(O)cc3o2)cc1O [Diosmetin]
hSULT1A3; [1]
  activity at 10 µM: 39.1%
hSULT1A2; [2]
  remaining activity at 10 µM: 57%
hSULT1A1; [4]
  activity at 1 µM: 0%

## COc1cc(O)c2c(c1)C(=O)c1cc(C)cc(O)c1C2=O [Emodin-3-methyl ether]
hSULT1A3; [1]
  Residue activity (%) hSULT1A3: 103.18%
hSULT1A2; [2]
  Residue activity (%) hSULT1A2: 89.81%
hSULT1A1; [4]
  Residue activity (%) hSULT1A1: 54.41%

## Cc1cc(O)c2c(c1)C(=O)c1cc(O)cc(O)c1C2=O [Emodin]
hSULT1A3; [1]
  activity at 10 µM: 65%
hSULT1A2; [2]
  remaining activity at 10 µM: 0%
hSULT1A2; [3]
  IC50: 360 ± 22.6 nM
hSULT1A1
  IC50: 76.5 ± 5.28 nM
hSULT1A1; [4]
  activity at 1 µM: 0%

## C=C(C)[C@@H]1CC[C@]2(C(=O)O)CC[C@]3(C)[C@H](CC[C@@H]4[C@@]5(C)CC[C@@H](O)C(C)(C)[C@@H]5CC[C@]43C)[C@@H]12 [Epibetulinic acid]
hSULT1A3; [1]
  activity at 10 µM: 121%
hSULT1A2; [2]
  remaining activity at 10 µM: 111%
hSULT1A1; [4]
  activity at 1 µM: 106%

## COc1ccc(-c2oc3c(CC=C(C)C)c(O[C@@H]4O[C@H](CO)[C@@H](O)[C@H](O)[C@H]4O)cc(O)c3c(=O)c2O[C@@H]2O[C@@H](C)[C@H](O)[C@@H](O)[C@H]2O[C@@H]2O[C@@H](C)[C@H](O)[C@@H](O)[C@H]2O)cc1 [Epimedin C]
hSULT1A3; [1]
  Residue activity (%) hSULT1A3: 107.48%
hSULT1A2; [2]
  Residue activity (%) hSULT1A2: 95.77%
hSULT1A1; [4]
  Residue activity (%) hSULT1A1: 108.62%

## C[C@@H]1O[C@@H](OC[C@H]2O[C@@H](Oc3cc(O)c4c(c3)O[C@H](c3ccc(O)c(O)c3)CC4=O)[C@H](O)[C@@H](O)[C@@H]2O)[C@H](O)[C@H](O)[C@H]1O [Eriocitrin]
hSULT1A3; [1]
  activity at 10 µM: 104%
hSULT1A2; [2]
  remaining activity at 10 µM: 111%
hSULT1A1; [4]
  activity at 1 µM: 65.5%

## COC[C@]12CN(C)[C@@H]3[C@@H]4[C@H](OC)[C@H]1[C@@]3([C@@H](OC)C[C@H]2O)[C@@H]1C[C@@]2(O)[C@H](OC(=O)c3ccccc3)[C@@H]1[C@]4(OC(C)=O)[C@@H](O)[C@@H]2OC [Mesaconitine]
hSULT1A3; [1]
  Residue activity (%) hSULT1A3: 110.31%
hSULT1A2; [2]
  Residue activity (%) hSULT1A2: 114.51%

## CC(C)=CCC[C@](C)(O)[C@H]1CC[C@]2(C)[C@@H]1[C@H](O)C[C@@H]1[C@@]3(C)CC[C@H](O)C(C)(C)[C@@H]3[C@@H](O[C@@H]3O[C@H](CO)[C@@H](O)[C@H](O)[C@H]3O[C@@H]3OC[C@@H](O)[C@H](O)[C@H]3O)C[C@]12C [Notoginsenoside R2]
hSULT1A2; [2]
  Residue activity (%) hSULT1A2: 108.58%
hSULT1A1; [4]
  Residue activity (%) hSULT1A1: 105.59%
